# Key:
# [1] = system: Ts65Dn mice; assay: Modified spontaneous alternation task (T-maze) in Ts65Dn mice (paper Examples 1 and 2); format: in vivo, mouse; settings: 5 to 30 doses, 3 mg/kg in milk orally or 1 mg/kg i.p.
# Description: (§1) Flumazenil may also be tested for its effects on declarative memory in the novel object recognition test and in a modified spontaneous alternation task. Wild-type and Ts65Dn mice may be administered flumazenil (3 mg/kg in milk via voluntary oral feeding or 1 mg/kg i.p.). The wild-type and Ts65Dn mice are administered from 5 to 30 doses of milk or milk-flumazenil (or saline or flumazenil solution i.p.). The mice are then subjected to two repetitions of novel object recognition testing or three daily T-maze sessions at the tail end of the treatment regimen. […] Comparison of treated and untreated Ts65Dn mice will provide controls for any possible arm bias in the spontaneous alternation task.
# as §1, with “Bretazenil may” for “Flumazenil may”, “administered bretazenil” for “administered flumazenil”
# [2] = system: Ts65Dn mice; assay: Long-term potentiation (LTP) in the dentate gyrus of Ts65Dn mice (paper Examples 1 and 2); format: in vivo, mouse; settings: about 1 month after cessation of drug treatment
# Text: Since the ability of animals to learn and remember is thought to be encoded at the synaptic level, and involves the ability of synapses to undergo long-term changes in synapse strength, long-term potentiation (LTP) in the dentate gyrus may be evaluated.
# [3] = system: Down Syndrome patients; assay: Cognition in Down Syndrome patients, double-blind cross-over (Example 3); format: in vivo, human; settings: 5 and 20 mg
# Description: Fifteen adult or adolescent Down Syndrome patients experiencing at least some level of cognitive impairment participate in a double-blind, cross-over comparison of […]. The drugs administered are flumazenil (5 and 20 mg), bretazenil (5 and 20 mg) or placebo. Subjects are randomly assigned to treatments according to a Williams Square design (Higgitt, supra (citing Williams, “Experimental designs balanced for the estimation of residual effects of treatments, Aust. J. Sci. Res. 2:149-168 (1949))). Each subject receives a different sequence of four treatments balanced for carry-over effects and separated by at least 1 week of wash-out period. […]
# Psychophysiological indices to be measured include: EEG, skin conductance, finger tremor, critical flicker fusion threshold, blood pressure and pulse rate, key tapping rate, and reaction time. […]
# EEG and evoked responses: These are recorded during the same EEG recording procedure. […] In addition, the four values are summed and each is expressed as a percentage of the total.
# The averaged evoked responses are obtained from the 500 ms epoch of the EEG following each of the 32 click stimuli. […] The latency at each peak and peak-to-peak amplitudes are computed and recorded automatically. […]
# Skin conductance, blood pressure and pulse rate can be measured by the method of Higgitt et al., supra. […]
# [4] = system: benzodiazepine receptors; settings: cited from earlier work
structure (smiles),measurement,setting,value
"CCOC(=O)c1ncn2c1CN(C)C(=O)c1cc(F)ccc1-2 [flumazenil, 8-fluoro-5,6-dihydro-5-methyl-6-oxo-4H-imidazo[1,5-a]benzodiazepine-3-carboxylic acid ethyl ester]",spontaneous alternation,[1],normal levels of alternation
same,LTP in the dentate gyrus,[2],Normalized LTP
same,indicators of cognition as compared to placebo,[3],improvement in one or more indicators of cognition
same,antagonism of the effects of diazepam,[4]; given orally or intravenously,effectively antagonizes
same,activity at oral dosing,"[4]; oral 30 to 100 mg, normal adult human subjects",partial benzodiazepine agonist
